The text below walks through data of article PMC6811590, “Solution structure, glycan specificity and of phenol oxidase inhibitory activity of Anopheles C-type lectins CTL4 and CTLMA2” (Scientific Reports, 2019).

For orientation: Kd means a measure of binding affinity in units of concentration. Read a low Kd as a tighter complex.

The test system of data set [1] is An. gambiae CTL4 (AGAP005335) with C-terminal 6xHis tag, chain of the CTL4/CTLMA2 heterodimer. Put plainly: non-reducing SDS-PAGE; purified CTL4/CTLMA2 on non-reducing and reducing SDS-PAGE; shows the disulfide-bridged species. The conditions noted are these: other: non-reducing SDS-PAGE.
The target in data set [2] is T1, CTLMA2 (Anopheles gambiae, UniProt Q7Q7F8).
T1 construct: gene 1276042; 6xHis-tagged CTLMA2 monomer, secreted from T.ni insect cells (baculovirus, synthetic gene)
T1 sequence (Q7Q7F8 18-174): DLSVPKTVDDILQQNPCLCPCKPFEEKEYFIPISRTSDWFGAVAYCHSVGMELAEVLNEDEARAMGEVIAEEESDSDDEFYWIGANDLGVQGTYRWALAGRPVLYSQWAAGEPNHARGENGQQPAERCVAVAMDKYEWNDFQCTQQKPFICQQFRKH
The experiment in a line: glycan array, anti-His fluorescence detection. It is filed as binding. As to conditions: PBS, 1 mM CaCl2, 1 mM MgCl2; glycan immobilised through spacer. An excerpt:
glycan array, anti-His fluorescence detection on CTLMA2

In data set [3] the target is T2, CTL4 (Anopheles gambiae, UniProt Q7Q7F7).
T2 construct: gene 1276043; 6xHis-tagged CTL4 monomer, secreted from T.ni insect cells (baculovirus, synthetic gene)
T2 sequence (Q7Q7F7 25-177): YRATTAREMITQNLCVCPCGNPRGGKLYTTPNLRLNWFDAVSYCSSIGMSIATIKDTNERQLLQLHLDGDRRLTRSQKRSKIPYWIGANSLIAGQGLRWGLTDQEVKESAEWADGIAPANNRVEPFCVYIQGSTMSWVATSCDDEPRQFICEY
Put plainly: SPR steady-state affinity (Biacore T200, protein immobilised on CM5). It is filed as binding. As to conditions: PBS, 1 mM CaCl2, 1 mM MgCl2. An excerpt:
SPR steady-state affinity (Biacore T200, protein immobilised on CM5) on CTL4
A general note: SPR reads the build-up and loss of mass on a sensor chip optically.

The target of data set [4] is T1, CTLMA2. The data set is described as above. The format is binding. The conditions noted are these: PBS, 1 mM CaCl2, 1 mM MgCl2. An excerpt: SPR steady-state affinity (Biacore T200, protein immobilised on CM5) on CTLMA2
For data set [5], the target named is T3, CTL4/CTLMA2 (Anopheles gambiae, UniProt Q7Q7F7+Q7Q7F8).
T3 construct: gene 1276043; disulfide-bridged heterodimer, pFastbac-Dual, C-terminal 6xHis on CTL4 (178-183), secreted from T.ni cells, signal peptides removed; 35 kDa
T3 sequence (Q7Q7F7 25-177): T2 sequence (Q7Q7F7 25-177)
T3 sequence (Q7Q7F8 18-174): T1 sequence (Q7Q7F8 18-174)
The data set is described as above. The format is binding. As to conditions: PBS, 1 mM CaCl2, 1 mM MgCl2. An excerpt: SPR steady-state affinity (Biacore T200, protein immobilised on CM5) on CTL4/CTLMA2

In data set [6] the target is T3, CTL4/CTLMA2. Put plainly: glycan array, anti-His fluorescence detection. It is filed as binding. The conditions noted are these: PBS, 1 mM CaCl2, 1 mM MgCl2; glycan immobilised through spacer. An excerpt: glycan array, anti-His fluorescence detection on CTL4/CTLMA2

As to “An. gambiae CTLMA2 (AGAP005334), chain of the CTL4/CTLMA2 heterodimer”, the “percent of the purified product that is heterodimer” value in data set [1] was “the purified product is overwhelmingly (>95%) heterodimer”. Compound “GlcNAcβ1-4Galβ1-4GlcNAcβ-sp2 [compound 251]” had a CTLMA2 in data set [2] of 1.04 fold. Take asialo-GM1 [18B]: the affinity in data set [3], expressed as Kd, was 15.4 ± 3.99 µM. Take `C[C@@H]1O[C@@H](O[C@H]2C(O)O[C@H](CO)[C@H](O)[C@@H]2O)[C@@H](O)[C@H](O)[C@@H]1O` (stereo partly drawn) [compound 479, H disaccharide]: the equilibrium dissociation constant (Kd) in data set [4] was 10400 ± 3260 nM; in data set [5] it was 26.6 ± 6.81 µM. In data set [5], `CC(=O)N[C@H]1[C@H](O[C@H]2[C@@H](O)[C@@H](CO)O[C@@H](O[C@H]3[C@H](O)[C@@H](O)C(O)O[C@@H]3CO)[C@@H]2O)O[C@H](CO)[C@@H](O)[C@@H]1O[C@@H]1O[C@H](CO)[C@H](O)[C@H](O)[C@H]1O` (stereo partly drawn) [compound 536, LNT] registered a dissociation constant Kd of 8.22 ± 1.71 µM. With `CC(=O)N[C@H]1[C@@H](O[C@H]2[C@@H](O)[C@@H](CO)OC(O)[C@@H]2O[C@@H]2O[C@@H](C)[C@@H](O)[C@@H](O)[C@@H]2O)O[C@H](CO)[C@H](O)[C@@H]1O` (stereo partly drawn) [compound 386, A blood group trisaccharide], the Kd in data set [3] turned out to be 49.3 ± 12.2 µM; in data set [4], 1770 ± 190 nM; in data set [5], 5.56 ± 2.9 µM. Consider “Neu5Acα2-3(GalNAcβ1-4)Galβ1-4Glcβ-sp2 [compound 421]”, for which, in data set [6], the CTL4/CTLMA2 turned out to be 1.94 fold.

For `CC(=O)N[C@H]1[C@H]([C@H](O)[C@H](O)CO)O[C@@](O[C@H]2[C@@H](O)[C@@H](CO)O[C@@H](O[C@H]3[C@H](O[C@@H]4O[C@@H](C)[C@@H](O)[C@@H](O)[C@@H]4O)[C@@H](NC(C)=O)C(O)O[C@@H]3CO)[C@@H]2O)(C(=O)O)C[C@@H]1O` (stereo partly drawn) [compound 428, Sialyl-Lewis X], the dissociation constant (Kd) in data set [4] turned out to be 619 ± 100 nM; in data set [5], 3.81 ± 1 µM. “Neu5Acα2-3Galβ1-3GlcNAcβ1-3Galβ1-4Glcβ-sp4 [compound 536]”: the CTL4/CTLMA2 in data set [6] came out at 2.13 fold. In the case of `CC(=O)N[C@H]1C(O)O[C@H](CO)[C@@H](O[C@@H]2O[C@@H](C)[C@@H](O)[C@@H](O)[C@@H]2O)[C@@H]1O[C@@H]1O[C@H](CO)[C@H](O)[C@H](OS(=O)(=O)O)[C@H]1O` (stereo partly drawn) [compound 287, Sulfo-Lewis A], the results for the Kd in data set [4] and in data set [5] were 106 ± 60 nM and 0.095 ± 0.02 µM, respectively. Take `CC(=O)N[C@H]1C(O)O[C@H](CO)[C@@H](O)[C@@H]1O` (stereo partly drawn) [113,251, GlcNAc monosaccharide]: the Kd in data set [3] turned out to be 27.9 ± 11.4 µM; in data set [4] it was 29700 ± 7910 nM; in data set [5], 21.9 ± 2.8 µM. Consider `CC(=O)N[C@H]1C(O)O[C@H](CO)[C@@H](O[C@@H]2O[C@H](COS(=O)(=O)O)[C@H](O)[C@H](O)[C@H]2O)[C@@H]1O` (stereo partly drawn) [compound 163], for which, in data set [3], the Kd was determined as 0.292 ± 0.15 µM. With `O=P(O)(O)OC[C@H]1OC(O)[C@@H](O)[C@@H](O)[C@@H]1O` (stereo partly drawn) [compound 47, 6-H2PO3Manα-sp3], in data set [6], the CTL4/CTLMA2 is 1.32 fold.

Take `CC(=O)N[C@H]1[C@H](O[C@H]2[C@@H](O)[C@@H](CO)O[C@@H](O[C@H]3[C@H](O)[C@@H](O)C(O)O[C@@H]3CO)[C@@H]2O)O[C@H](CO)[C@@H](O[C@@H]2O[C@H](CO)[C@H](O)[C@H](O)[C@H]2O)[C@@H]1O` (stereo partly drawn) [383,488, LNnT]: binding in data set [5] was put at a Kd of 17.6 ± 2.99 µM.
